Type in all cases: biochemical
The target of assay [1] is butyrylcholinesterase (BuChE) (Homo sapiens, UniProt P06276). In words: BuChE inhibition by Ellman's method. As to conditions: for inhibition at 35 µM: read-out: BuChE % inhibition. A general note: In Ellman's method for cholinesterases, released thiocholine reacts with DTNB.
Assay [2] concerns the target acetylcholinesterase (AChE) (Homo sapiens, UniProt P22303). In words: AChE inhibition by Ellman's method. As to conditions: for inhibition at 35 µM: read-out: AChE % inhibition.
The target of assay [3] is AChE (Homo sapiens, UniProt P22303). In words: Kinetic study of AChE inhibition.
Chain of AChE (P22303 32-614, species assumed): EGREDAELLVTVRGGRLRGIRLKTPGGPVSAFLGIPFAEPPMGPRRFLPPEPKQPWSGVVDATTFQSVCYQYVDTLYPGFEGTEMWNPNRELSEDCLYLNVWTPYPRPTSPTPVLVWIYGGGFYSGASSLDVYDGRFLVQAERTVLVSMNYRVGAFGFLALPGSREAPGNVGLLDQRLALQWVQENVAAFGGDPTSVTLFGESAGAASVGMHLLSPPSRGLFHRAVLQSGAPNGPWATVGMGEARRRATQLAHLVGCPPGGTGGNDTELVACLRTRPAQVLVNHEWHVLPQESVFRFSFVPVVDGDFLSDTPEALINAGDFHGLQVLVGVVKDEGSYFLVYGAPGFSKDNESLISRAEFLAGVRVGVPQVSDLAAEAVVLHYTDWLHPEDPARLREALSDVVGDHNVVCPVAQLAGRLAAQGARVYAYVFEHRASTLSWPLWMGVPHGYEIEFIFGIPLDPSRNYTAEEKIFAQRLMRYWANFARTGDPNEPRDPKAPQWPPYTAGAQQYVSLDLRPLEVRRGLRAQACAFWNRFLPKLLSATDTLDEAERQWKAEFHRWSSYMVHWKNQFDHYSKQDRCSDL

Chain of butyrylcholinesterase (BuChE) (P06276 29-602): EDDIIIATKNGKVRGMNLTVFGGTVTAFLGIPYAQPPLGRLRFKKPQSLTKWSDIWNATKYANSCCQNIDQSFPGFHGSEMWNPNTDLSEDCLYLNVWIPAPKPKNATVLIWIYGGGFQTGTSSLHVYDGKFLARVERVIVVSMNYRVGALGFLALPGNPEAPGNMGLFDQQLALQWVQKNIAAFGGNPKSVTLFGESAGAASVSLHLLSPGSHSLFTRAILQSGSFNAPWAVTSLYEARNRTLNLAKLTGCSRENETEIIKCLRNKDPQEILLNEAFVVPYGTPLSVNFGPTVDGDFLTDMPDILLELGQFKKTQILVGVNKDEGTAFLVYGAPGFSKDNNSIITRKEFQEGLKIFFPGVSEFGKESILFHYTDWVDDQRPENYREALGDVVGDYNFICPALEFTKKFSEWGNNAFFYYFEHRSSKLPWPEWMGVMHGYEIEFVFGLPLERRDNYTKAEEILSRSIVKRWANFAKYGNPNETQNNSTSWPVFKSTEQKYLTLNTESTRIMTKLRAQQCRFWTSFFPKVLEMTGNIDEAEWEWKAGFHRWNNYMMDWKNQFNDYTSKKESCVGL
Chain of acetylcholinesterase (AChE) (P22303 32-614, species assumed): as the sequence (P22303 32-614, species assumed) above

For orientation: IC50 means the point on the concentration scale where inhibition reaches its midpoint. One may read the inhibition as how much of the control response was suppressed. `O=c1ccc2ccc(OCCCCOc3cccc4cccnc34)cc2o1` [Compound 3a, 7-(4-(Quinolin-8-yloxy)butoxy)-2H-chromen-2-one] yielded an IC50 in assay [1] of 28.3 µM. Also, in assay [2], the inhibition at 35 µM was 48%.
For orientation: Ki means the dissociation constant of the complex between target and ligand, obtained from inhibition or displacement. In turn, `O=c1ccc2ccc(OCCCCCOc3cccc4cccnc34)cc2o1` [Compound 3b, 7-((5-(Quinolin-8-yloxy)pentyl)oxy)-2H-chromen-2-one] yielded a Ki in assay [3] of 1.32 µM. Further, the “type of AChE inhibition” value in assay [3] (Lineweaver-Burk plot, substrate ATChI) is recorded as “mixed-type inhibition”. Also, the figures for the IC50 in assay [1] and in assay [2] were 26.5 µM and 8.8 µM, respectively.
`Cc1cc(=O)oc2cc(OCCCOc3cccc4cccnc34)ccc12` [Compound 3c, 4-Methyl-7-(3-(quinolin-8-yloxy)propoxy)-2H-chromen-2-one]: the IC50 in assay [1] is 32.4 µM; in assay [2], 11.3 µM.
For the molecule `Cc1cc(=O)oc2cc(OCCCCCOc3cccc4cccnc34)ccc12` [Compound 3d, 4-Methyl-7-((5-(quinolin-8-yloxy)pentyl)oxy)-2H-chromen-2-one], the inhibition at 35 µM in assay [1] came out at 34.6%. In assay [2], the IC50 was found to be 14 µM.
As to `CCOC(=O)c1cc2ccc(OCCCOc3cccc4cccnc34)cc2oc1=O` [Compound 3e, Ethyl 2-oxo-7-(3-(quinolin-8-yloxy)propoxy)-2H-chromene-3-carboxylate], the inhibition at 35 µM in assay [1] turned out to be 46%. Besides, the IC50 in assay [2] worked out at 16.2 µM.
On the same counts, the results for `CCOC(=O)c1cc2ccc(OCCCCCOc3cccc4cccnc34)cc2oc1=O` [Compound 3f, Ethyl 2-oxo-7-((5-(quinolin-8-yloxy)pentyl)oxy)-2H-chromene-3-carboxylate] are 29.2% and 8.94 µM.
As for `O=C(O)c1cc2ccc(OCCCOc3cccc4cccnc34)cc2oc1=O` [Compound 3g, 2-Oxo-7-(3-(quinolin-8-yloxy)propoxy)-2H-chromene-3-carboxylic acid], the inhibition at 35 µM in assay [1] was 2%; in assay [2], 15%.
As to `O=c1cc(-c2ccccc2)c2ccc(NCCCOc3cccc4cccnc34)cc2o1` [Compound 3h, 4-Phenyl-7-((3-(quinolin-8-yloxy)propyl)amino)-2H-chromen-2-one], the inhibition at 35 µM in assay [1] is 37%. In addition, the IC50 in assay [2] amounted to 30.2 µM.
The matching figures for `O=c1ccc2ccc(OCCCCCSc3nc4ccccc4[nH]3)cc2o1` [Compound 3i, 7-((5-((1H-Benzo[d]imidazol-2-yl)thio)pentyl)oxy)-2H-chromen-2-one]: 38% and 11.7 µM.
Take `O=c1ccc2ccc(OCCCCCSc3nc4ccccc4o3)cc2o1` [Compound 3j, 7-((5-(Benzo[d]oxazol-2-ylthio)pentyl)oxy)-2H-chromen-2-one]: the inhibition at 35 µM in assay [1] stood at 14%. In assay [2], this molecule came in with an IC50 of 25.4 µM.
For the molecule `Cc1cc(=O)oc2cc(OCCCSc3nc4ccccc4o3)ccc12` [Compound 3k, 7-(3-(Benzo[d]oxazol-2-ylthio)propoxy)-4-methyl-2H-chromen-2-one], the inhibition at 35 µM in assay [1] amounted to 11%; in assay [2], 44%.
For the molecule `O=c1cc(-c2ccccc2)c2ccc(NCCCSc3nc4ccccc4o3)cc2o1` [Compound 3l, 7-((3-(Benzo[d]oxazol-2-ylthio)propyl)amino)-4-phenyl-2H-chromen-2-one], the inhibition at 35 µM in assay [1] amounted to 26%. Further, the IC50 in assay [2] worked out at 13 µM.
